# Like-named read-outs stand apart in the source and are kept apart here.
# Legend:
# [1] = background values, cited from earlier work
# [2] = J. Voorspoels et al., The Veterinary Record (October 1999); cited from earlier work
# [3] = Oral pharmacokinetics in rabbits; assay type: in vivo, New Zealand White rabbits; conditions: for Tmax: oral
# Protocol: Prior to oral drug administration, the rabbits (n=5) were fasted overnight (>12 hours). After receiving the oral dose, 3 mL of water was administered to facilitate swallowing. After 4 hours, the rabbits had free access to food and water. A wash out period of seven days was allowed between subsequent dose administrations. […] Plasma was then transferred to a fresh Eppendorf tube and frozen at −20° C. prior to analysis.
# [4] = tested on: Caco-2 cell monolayer; test: Caco-2 cell monolayer transport; assay type: in vitro ADME
# Protocol: As receiver medium for Caco-2 transport experiments, 0.2 wt.-% TPGS (D-α-tocopherol polyethylene glycol 1000 succinate, commercially available from Eastman, Anglesey, England) in transport medium (hereinafter referred to as TM) [HBSS Hanks' Balanced Salt Solution supplemented with glucose to obtain a final concentration of 25 mM, commercially available from Sigma-Aldrich, Steinheim, Germany and Hepes-buffer (10 mM, pH 7.4, N-2-hydroxyethylpiperazine-N′-2-ethanesulfonic acid, commercially available from Lonza, Verviers, Belgium)] was used. To maintain sink conditions, TPGS was included in the medium added to the basolateral side of the Caco-2 cell monolayer.
# Caco-2 cells were purchased from Cambrex Biosciences, Walkersville, Md., United States of America. Caco-2 cells were grown in 75 cm^2 culture flasks at 37° C. in an atmosphere of 5% CO2 and 90% relative humidity. Cells were passaged every 3-4 days (at 70-80% confluence) at a split ratio of 1 to 7. Cells were negative for Mycoplasma infection.
# For transport experiments, Caco-2 cells were plated at a density of 88,500 cells/insert on Costar® Transwell membrane inserts (3 μm pore diameter, 12 mm diameter; commercially available from Corning Inc., New York). Confluence was reached within 3-4 days after seeding and the monolayers were used for the experiments 18-19 days post-seeding. Cell passages between 50 and 85 were used in the experiments. Transepithelial Electrical Resistance (hereinafter referred as TEER) values were measured with an EndOhm Voltohmmeter (commercially available from WPI, Aston, England). Only monolayers with initial TEER values higher than 200 Ω·cm^2 were used. All volumes amounted to 0.5 mL at the apical side of the monolayer and 1.5 mL at the basolateral side. After rinsing the monolayers 3 times with TM, a pre-incubation step (30 minutes) with TM (control) was performed.
# […] The samples were diluted with methanol (1:1 volume ratio) and itraconazole concentration was determined by HPLC. TEER values were measured again at the end of the experiment and were higher than 95% of the initial value.
# [5] = Equilibrium solubility of itraconazole in FaSSIF; assay type: physicochemical; conditions: thermodynamic from solid; FaSSIF pH 6.5, 37° C., equilibration up to one week
# [6] = male, Wistar, rat, in vivo
# Protocol: Male Wistar rats of about 350 g were anaesthetized with a ketamin (Anesketin, commercially available from Eurovet, Heusden, Belgium)—xylazin (Xyl-M 2%, commercially available from VMD, Arendonk, Belgium) mixture (87.5 and 8.75 mg/kg respectively). The left jugular vein was cannulated with a heparinized (50 IU·mL^−1) polyethylene cannula (1.02 mm outer diameter; commercially available from Portex, Kent, United Kingdom) for blood supply from a donor rat during the perfusion experiment. A laparotomy was performed and the small intestine was exposed. A segment of the ileum (4-10 cm) was isolated by inserting two glass cannulas (4 mm o.d., 3 mm i.d.) at the proximal and distal end of the segment. Polyethylene tubing (6.5 mm o.d., 3.1 mm i.d.) was connected to the inlet cannula. The intestinal content was removed by perfusing the segment with pre-warmed TM (38° C.) at a flow rate of 3 mL/min. The perfusion pump (Minipuls3, commercially available from Gilson, Middleton, USA) was placed between the reservoir and the inlet cannula. After pre-incubation of the intestine with TM, the mesenteric vein draining the isolated part of the ileum was cannulated using the top end (1 cm) of a catheter (Insyte-W® 0.7×19 mm, commercially available from Beckton Dickinson, Salt Lake City, Utah). […]
# Plasma concentrations of itraconazole were determined by HPLC as follows. […]
# [7] = Oral pharmacokinetics in dogs; conditions: for systemic exposure after oral dosing (HPLC-UV): dogs, oral 20 mg, 4 dogs
# Protocol: Details of the dog's experiments were as follows: Marshall Beagle dogs (1.5-3 years of age, 7.1-10.0 kg, male) were housed according to Belgian laws and European regulations for animal experiments, and with free access to water and food. The comparative bioavailability study was performed according to a cross-over design (n=5). After administration of the capsules, 10 mL of water was given to facilitate swallowing. The evaluation of the formulation containing pure crystalline itraconazole was performed with 4 dogs. Blood samples (2.5 mL) were collected from the vena jugularis before dosing and at 0.25, 0.5, 1, 2, 3, 4, 6, 8 hours respectively after dosing. Immediately after blood collection, plasma was harvested by centrifugation at 2,500 g for 10 minutes. Plasma was then transferred to a fresh tube and frozen at −20° C. prior to analysis.
# The mobile phase consisted of a methanol/25 mM sodium acetate mixture (78/22 by volume) at pH 3.3.
# The maximal plasma concentrations (Cmax) and the time (Tmax) required to reach Cmax were determined from the individual time versus concentration profiles. Systemic exposure was determined by calculating AUC0-24h (rabbits) and AUC0-8h (dogs) using the linear trapezoidal rule. Pharmacokinetic parameters between the three formulations tested were statistically compared with the non-parametric Wilcoxon signed-rank test. The level of significance was set at p<0.03 for comparing two out of three groups.
"Tmax ([3]; female, New Zealand White, rabbit, plasma, 8 mg)","Tmax ([3]; female, New Zealand White, rabbit, plasma, 8.4 mg)","AUC(0-t) ([3]; female, New Zealand White, rabbit, plasma, po, 8 mg, single oral capsule dose about 8 mg, n=5, read-out: AUC0-24 h itraconazole)","AUC0-24 h itraconazole ([3]; single oral capsule dose about 8 mg, n=5, listed as crystalline itraconazole)",total transport of itraconazole after 90 minutes ([4]; donor: 10 μM supersaturated condition in FaSSIF (solvent shift)),total transport of itraconazole after 90 minutes ([4]; donor: 75 μM supersaturated condition in FaSSIF (solvent shift)),total transport of itraconazole after 90 minutes ([4]; donor: saturated itraconazole solution in FaSSIF),solubility thermodynamic [5],Total transport after 60 minutes [6],Total transport after 60 minutes ([6]; 75 μM),"AUC0-8 h itraconazole ([7]; male, Marshall Beagle, dog, in vivo, po, 20 mg)",Structure (SMILES),water-solubility [1],oral bioavailability [2],water-solubility ([1]; listed as Florfenicol),systemic exposure after oral dosing (HPLC-UV) ([7]; listed as crystalline itraconazole),systemic exposure after oral dosing (HPLC-UV) ([7]; listed as pure crystalline itraconazole)
,,,,,,,,,,,CC(C)(C)c1ccc(C(O)CCCN2CCC(C(O)(c3ccccc3)c3ccccc3)CC2)cc1 (centres unmarked) [terfenadine],less than 0.01 mg/mL,,,,
,,,,,,,,,,,"CS(=O)(=O)c1ccc([C@@H](O)[C@@H](CF)NC(=O)C(Cl)Cl)cc1 [florfenicol, D-(threo)-1-p-methylsulfonyl phenyl-2-dichloroacetamido-3-fluoro-1-propanol]",1300 µg/mL,good oral bioavailability,about 1.3 mg/mL,,
9.8 h,10 h,0.521 µM·h,0.52 µM·h,1.2 µg,2.2 µg,0.09 µg,0.4 µM,0.03 nmol/cm,0.50 nmol/cm,0 ± 0 µM·h,CCC(C)n1ncn(-c2ccc(N3CCN(c4ccc(OCC5COC(Cn6cncn6)(c6ccc(Cl)cc6Cl)O5)cc4)CC3)cc2)c1=O (centres unmarked) [itraconazole],,,,no systemic itraconazole could be detected,no systemic concentrations of itraconazole and its main metabolite hydroxy-itraconazole could be observed

# — US8258137B2, “Process for release of biologically active species from mesoporous oxide systems” (Katholieke Universiteit Leuven, priority 2008, dated 2012)
